Read-outs that look alike come from different tables or passages of the source. A value given as a limit tells only on which side of the number the result lay.

IC50 data for 43 compounds are collected here from patent US20230078764A1 (Yumanity Therapeutics, Inc., priority 2019, published 2023).

In one assay the target is T1, human SCD1 (Homo sapiens, UniProt O00767).
T1 construct: expressed in transfected cells; host or cells: yeast strain with OLE1 deleted, plasmid-borne human SCD1 (selected in SD-Ura)
T1 sequence (O00767 1-359): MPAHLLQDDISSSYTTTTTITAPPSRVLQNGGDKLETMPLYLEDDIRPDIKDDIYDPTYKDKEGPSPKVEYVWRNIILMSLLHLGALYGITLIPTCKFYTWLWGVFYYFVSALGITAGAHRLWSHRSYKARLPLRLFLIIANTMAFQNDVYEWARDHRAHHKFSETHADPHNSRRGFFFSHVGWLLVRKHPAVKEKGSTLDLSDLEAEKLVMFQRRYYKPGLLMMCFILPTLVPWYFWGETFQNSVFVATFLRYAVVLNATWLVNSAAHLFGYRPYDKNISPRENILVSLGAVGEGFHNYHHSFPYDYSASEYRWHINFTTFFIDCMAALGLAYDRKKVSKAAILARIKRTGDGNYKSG
Put plainly: Growth inhibition of yeast strain expressing human SCD1 as sole desaturase (OLE1 deleted), OD600 readout. Format: cell-based.

The next assay deals with T2, human SCD5 (Homo sapiens, UniProt Q86SK9).
T2 construct: expressed in transfected cells; host or cells: yeast strain with OLE1 deleted, plasmid-borne human SCD5 (selected in SD-Ura)
T2 sequence (Q86SK9 1-330): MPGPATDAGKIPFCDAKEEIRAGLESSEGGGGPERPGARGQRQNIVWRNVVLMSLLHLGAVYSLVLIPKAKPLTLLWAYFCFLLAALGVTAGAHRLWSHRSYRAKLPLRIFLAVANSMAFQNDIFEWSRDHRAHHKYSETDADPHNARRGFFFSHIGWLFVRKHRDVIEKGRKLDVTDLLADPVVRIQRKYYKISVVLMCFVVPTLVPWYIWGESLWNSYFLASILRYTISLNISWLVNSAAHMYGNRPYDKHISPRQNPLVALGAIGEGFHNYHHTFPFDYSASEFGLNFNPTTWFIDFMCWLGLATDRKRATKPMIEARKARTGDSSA
Nature of the assay: Growth inhibition of yeast strain expressing human SCD5 as sole desaturase (OLE1 deleted), OD600 readout. It is filed as cell-based.

Setting [1] is: yeast strain expressing human SCD1 as sole desaturase, growth (OD600) after 40 h at 30° C., read-out: SCD1 IC50.
The mark [2] stands for this setting: yeast strain expressing human SCD5 as sole desaturase, growth (OD600) after 40 h at 30° C., read-out: SCD5 IC50.

As a reminder, the IC50 is the concentration at which inhibition is half-maximal. Regarding `O=C(Nc1ccc(Cc2cc(F)cc(F)c2)cn1)c1ccncc1` [Compound 651], the IC50 at human SCD1 (setting [1]) worked out at 90 nM; on human SCD5 (setting [2]) it was 24 nM.
Regarding `Cn1cc(C(=O)Nc2ccc(Cc3cccc(Cl)c3)cn2)cnc1=O` [Compound 652], the IC50 on human SCD1 (setting [1]) stood at 1900 nM; at human SCD5 (setting [2]) it was 86 nM.
On to `Cn1nc(C(=O)Nc2ccc(C3(c4ccc(F)c(F)c4)CC3)cn2)ccc1=O` [Compound 653], for which the IC50 at human SCD1 (setting [1]) was more than 45000 nM; on human SCD5 (setting [2]), 1400 nM.
In the case of `N#Cc1cnc(C(=O)Nc2ccc(Cc3ccc(F)c(C#N)c3)cn2)cn1` [Compound 654], the IC50 stood at 1900 nM on human SCD1 (setting [1]) and 56 nM at human SCD5 (setting [2]).
The like results for `N#Cc1cc(F)cc(Cc2ccc(NC(=O)c3cnc(C#N)cn3)nc2)c1` [Compound 655] were, in that order, 360 nM and 35 nM.
Consider `N#Cc1cc(F)cc(Cc2ccc(NC(=O)c3ccnnc3)nc2)c1` [Compound 656], for which the values for the IC50 on human SCD1 (setting [1]) and at human SCD5 (setting [2]) were 220 nM and 110 nM, respectively.
The like results for `O=C(Nc1ccc(Cc2cc(F)cc(F)c2)cn1)c1cnnc(Cl)c1` [Compound 657] were, in that order, 10 nM and 10 nM.
For `Cn1nc(C(=O)Nc2ccc(COc3cc(F)cc(F)c3)cn2)ccc1=O` [Compound 658] the same measures were 1600 nM and 180 nM.
Consider `O=C(Nc1ccc(Cc2cc(F)cc(Cl)c2)cn1)c1cnc(Cl)cn1` [Compound 659], for which the IC50 on human SCD1 (setting [1]) stood at 350 nM; at human SCD5 (setting [2]), 55 nM.
The like results for `Cn1cc(C(=O)Nc2ccc(N3CC(Oc4cccc(Cl)c4)C3)cn2)ccc1=O` [Compound 660] were, in that order, more than 45000 nM and 8900 nM.
The like results for `N#Cc1cnc(C(=O)Nc2ccc(Cc3cc(F)cc(Cl)c3)cn2)cn1` [Compound 661] were, in that order, 180 nM and 10 nM.
For `N#Cc1cc(C(=O)Nc2ccc(Cc3cc(F)cc(F)c3)cn2)cnn1` [Compound 662] the same measures were 300 nM and 180 nM.
In the case of `Cc1cc(C(=O)Nc2ccc(Cc3cc(F)cc(C#N)c3)cn2)cnc1C#N` [Compound 663], the half-maximal inhibitory concentration (IC50) is more than 45000 nM on human SCD1 (setting [1]) and 39 nM at human SCD5 (setting [2]).
For the compound `Cn1nc(C(=O)Nc2ccc(COc3ccc(F)c(F)c3)cn2)ccc1=O` [Compound 664], the IC50 on human SCD1 (setting [1]) was 31000 nM; at human SCD5 (setting [2]), 900 nM.
The like results for `Cc1cc(C(=O)Nc2ccc(Cc3cc(F)cc(C#N)c3)cn2)cnc1Cl` [Compound 665] were, in that order, more than 45000 nM and 490 nM.
In the case of `N#Cc1cc(F)cc(Cc2ccc(NC(=O)c3ccnc(Cl)n3)nc2)c1` [Compound 666], the IC50 on human SCD1 (setting [1]) is 3600 nM; at human SCD5 (setting [2]), 290 nM.
Turning to `Cn1nc(C(=O)Nc2ccc(COc3ccc(Cl)c(F)c3)cn2)ccc1=O` [Compound 667], the IC50 on human SCD1 (setting [1]) was more than 45000 nM; at human SCD5 (setting [2]) it was 310 nM.
Take `Cn1cc(C(=O)Nc2ccc(Cc3cc(F)cc(Cl)c3)cn2)n(C)c1=O` [Compound 668]: the IC50 on human SCD1 (setting [1]) and on human SCD5 (setting [2]) was 10 nM throughout.
On to `N#Cc1cc(Cl)cc(Cc2ccc(NC(=O)c3ccnnc3)nc2)c1` [Compound 669], for which the IC50 came to 220 nM at human SCD1 (setting [1]) and 73 nM at human SCD5 (setting [2]).
The like results for `Cn1nc(C(=O)Nc2ccc(COc3ccc(Cl)cc3)cn2)ccc1=O` [Compound 670] were, in that order, more than 45000 nM and 1800 nM.
For `Cn1nc(C(=O)Nc2ccc(COc3cc(Cl)cc(C#N)c3)cn2)ccc1=O` [Compound 671] the same measures were more than 45000 nM and 2000 nM.
For `Cn1cc(C(=O)Nc2ccc(Cc3cc(F)cc(F)c3)cn2)ncc1=O` [Compound 672], the IC50 at human SCD1 (setting [1]) was determined as 500 nM; at human SCD5 (setting [2]), 420 nM.
The like results for `CNC(=O)c1ccnc(C(=O)Nc2ccc(Oc3ccccc3Cl)cn2)c1` [Compound 675] were, in that order, more than 45000 nM and 12000 nM.
The like results for `Cc1cc(C(=O)Nc2ccc(Cc3cc(F)cc(F)c3)cn2)cn(C)c1=O` [Compound 676] were, in that order, 83 nM and 10 nM.
In the case of `N#Cc1cc(Cl)cc(Cc2ccc(NC(=O)c3cnc(C#N)cn3)nc2)c1` [Compound 677], the IC50 at human SCD1 (setting [1]) is more than 45000 nM; at human SCD5 (setting [2]), 79 nM.
Regarding `CNC(=O)c1ccnc(NC(=O)c2ccc(Oc3ccccc3Cl)cn2)c1` [Compound 678], the IC50 was determined as 320 nM at human SCD1 (setting [1]) and 380 nM at human SCD5 (setting [2]).
For the compound `Cc1cc(C(=O)Nc2ccc(Cc3ccc(F)c(F)c3)cn2)cn(C)c1=O` [Compound 679], the IC50 is 570 nM on human SCD1 (setting [1]) and 10 nM at human SCD5 (setting [2]).
With `Cn1nc(C(=O)Nc2ccc(Cc3cc(F)cc(F)c3Cl)cn2)ccc1=O` [Compound 680], the results for the IC50 on human SCD1 (setting [1]) and at human SCD5 (setting [2]) were 2700 nM and 25 nM, respectively.
For `O=C(Nc1ccc(Cc2cccc(Cl)c2)cn1)c1nnc(C(F)(F)F)o1` [Compound 681] the same measures were more than 45000 nM and 2100 nM.
Take `O=C(NNC(=O)C(F)(F)F)C(=O)Nc1ccc(Cc2cccc(Cl)c2)cn1` [Compound 682]: the IC50 at human SCD1 (setting [1]) was determined as 100 nM; at human SCD5 (setting [2]), 200 nM.
With `N#Cc1nc(C(=O)Nc2ccc(Cc3cc(F)cc(F)c3)cn2)co1` [Compound 683], the IC50 on human SCD1 (setting [1]) worked out at 8100 nM; at human SCD5 (setting [2]), 3900 nM.
For the compound `CN1N=C(C(=O)Nc2ccc(Cc3cccc(Cl)c3)cn2)CCC1=O` [Example 15, N-(5-(3-chlorobenzyl)pyridin-2-yl)-1-methyl-6-oxo-1,4,5,6-tetrahydropyridazine-3-carboxamide], the results for the IC50 at human SCD1 (setting [1]) and at human SCD5 (setting [2]) were more than 45000 nM and 450 nM, respectively.
For `CN1N=C(C(=O)Nc2ccc(Cc3cccc(C(F)(F)F)c3)cn2)CCC1=O` [Example 18, 1-methyl-6-oxo-N-(5-(3-(trifluoromethyl)benzyl)pyridin-2-yl)-1,4,5,6-tetrahydropyridazine-3-carboxamide] the same measures were 8570 nM and 1600 nM.
On to `CN1N=C(C(=O)Nc2ccc(Cc3ccc(Cl)c(Cl)c3)cn2)CCC1=O` [Example 20, N-(5-(3,4-dichlorobenzyl)pyridin-2-yl)-1-methyl-6-oxo-1,4,5,6-tetrahydropyridazine-3-carboxamide], for which the IC50 amounted to 220 nM on human SCD1 (setting [1]) and 30 nM on human SCD5 (setting [2]).
The like results for `CN1N=C(C(=O)Nc2ccc(Cc3ccc(Cl)s3)cn2)CCC1=O` [Example 21, N-(5-((5-chlorothiophen-2-yl)methyl)pyridin-2-yl)-1-methyl-6-oxo-1,4,5,6-tetrahydropyridazine-3-carboxamide] were, in that order, more than 45000 nM and 1780 nM.
Turning to `CN1N=C(C(=O)Nc2ccc(Cc3cccc(C4CC4)c3)cn2)CCC1=O` [Example 23, N-(5-(3-cyclopropylbenzyl)pyridin-2-yl)-1-methyl-6-oxo-1,4,5,6-tetrahydropyridazine-3-carboxamide], the IC50 at human SCD1 (setting [1]) was more than 45000 nM; on human SCD5 (setting [2]), 2490 nM.
On to `Cn1cc(C(=O)Nc2ccc(Cc3cc(F)cc(C#N)c3)cn2)ccc1=O` [Example 25, N-(5-(3-cyano-5-fluorobenzyl)pyridin-2-yl)-1-methyl-6-oxo-1,6-dihydropyridine-3-carboxamide], for which the results for the IC50 at human SCD1 (SCD1 IC50) and against human SCD5 (SCD5 IC50) were 4030 nM and 530 nM, respectively.
Consider `CN1N=C(C(=O)Nc2ccc(Cc3cccc(Br)c3)cn2)CCC1=O` [Example 27, N-(5-(3-bromobenzyl)pyridin-2-yl)-1-methyl-6-oxo-1,4,5,6-tetrahydropyridazine-3-carboxamide], for which the figures for the IC50 at human SCD1 (setting [1]) and at human SCD5 (setting [2]) were more than 45000 nM and 390 nM, respectively.
For `CN1N=C(C(=O)Nc2ccc(Cc3cc(F)cc(Cl)c3)cn2)CCC1=O` [Example 28, N-(5-(3-chloro-5-fluorobenzyl)pyridin-2-yl)-1-methyl-6-oxo-1,4,5,6-tetrahydropyridazine-3-carboxamide] the same measures were 1950 nM and 20 nM.
The like results for `COc1cccc(Cc2ccc(NC(=O)C3=NN(C)C(=O)CC3)nc2)c1` [Example 30, N-(5-(3-methoxybenzyl)pyridin-2-yl)-1-methyl-6-oxo-1,4,5,6-tetrahydropyridazine-3-carboxamide] were, in that order, more than 45000 nM and 3530 nM.
As for `CN1N=C(C(=O)Nc2ccc(Cc3cc(Cl)cc(Cl)c3)cn2)CCC1=O` [Example 31], the IC50 is 6280 nM at human SCD1 (setting [1]) and 50 nM at human SCD5 (setting [2]).
The like results for `CN1N=C(C(=O)Nc2ccc(Cc3cccc(C(F)F)c3)cn2)CCC1=O` [Example 32, N-(5-(3-(difluoromethyl)benzyl)pyridin-2-yl)-1-methyl-6-oxo-1,4,5,6-tetrahydropyridazine-3-carboxamide] were, in that order, 26400 nM and 310 nM.
For `CN1N=C(C(=O)Nc2ccc(Cc3ccc(C#N)c(Cl)c3)cn2)CCC1=O` [Example 33, N-(5-(3-chloro-4-cyanobenzyl)pyridin-2-yl)-1-methyl-6-oxo-1,4,5,6-tetrahydropyridazine-3-carboxamide] the same measures were more than 45000 nM and 18000 nM.
